Measurements taken from patent US10335503B2, “Compound that specifically binds to AMPA receptor” (Public University Corporation Yokohama City University, priority 2015, dated 2019).
Blank lines part the entries; values can stand above or below the compound they belong to.

Key:
AMPA receptor [1] = assay: Electrophysiological experiment: AMPA current by whole-cell recording in acute hippocampus section; type: cell-based, rat; settings: 150 μM in ACSF for 15 minutes, CA1 pyramidal cell, ground state converted as 1
Procedure: (§1) In the LC-MS/MS experiment, all of the synthesized compounds were dissolved in 100% DMSO so as to have a concentration of 2.5 mM, diluted with physiological saline water immediately before administration (PEPA (1.2 pmol/g), M-1 (12 pmol/g), K-2 (12 pmol/g), M-3 (60 pmol/g), and M-2 (240 pmol/g)), and administered by the parenteral route. In the electrophysiological experiment, PEPA and K-2 were dissolved in 100% DMSO so as to have a concentration of 150 mM, diluted with ACSF as a reflux liquid immediately before the experiment so as to have a concentration of 150 μM and then used. […]
A 7- to 8-week-old male SD rat was used. […] The section was left to stand still in ACSF at room temperature for 60 minutes, and then the AMPA current was measured by a whole-cell recording method. 100 μM of picrotoxin and 100 μM of DL-APV were administered under the condition that the ACSF was refluxed at a rate of 3 ml/min, and then only the AMPA current was isolated and measured.
The recording electrode was placed on a pyramidal cell in CA1, and the exciting electrode was placed on the Schaffer fiber separated away from the recording cell by 100 to 200 μm. […] The AMPA current in the ground state was recorded for 5 minutes, reflux was thereafter performed using ACSF added with PEPA or K-2 for 15 minutes, and then the AMPA current was recorded in the reflux liquid not containing PEPA or K-2 for 30 minutes. […]

[2] = LC-MS/MS experiment: accumulation of compound in hippocampal tissue; type: in vivo; settings: rat, 15 minutes from administration, compared among five compounds (FIG. 1)
Procedure: as §1
The LC-MS/MS experiment and the biochemical experiment were performed after a rat was allowed to get to sleep by inhalation of isoflurane while anesthesia was maintained using a dedicate carburetor at a concentration of 1.5%. […] In the LC-MS/MS experiment, the hippocampus region was collected in a thickness of approximately 2 mm from the extracted whole brain using Brain matrix (ASI instruments, U.S.), the tissue weight thereof was measured, and then the hippocampus region was put into a 1.5-ml conical tube. […]
As for the preliminary reviewing of measurement conditions, an optimal dilution solvent and an optimal dilution magnification for each compound were determined using the hippocampal tissue (Table 4). […]

[3] = tested on: AMPA receptors (GluA1 to 3); assay: In vivo PET imaging of rat with shRNA against GluA1 to 3 in left striatum, scramble RNA in right striatum; settings: seven rats, shRNA side vs scramble side of striatum
Procedure: The PET imaging was performed using micro PET (Focus 220; Siemens Medical Solution). PET imaging experiment using a rat: After the rat was allowed to get to sleep by isoflurane (DS Pharma Animal Health Co., Ltd., Japan), anesthesia was maintained at an isoflurane concentration of 1.5% (air 2 L/min), and then the intravenous line was secured from the tail vein by a 24G Surflo indwelling needle (TERUMO CORPORATION, Japan). The rat was fixed to the PET imaging base, and then radiation imaging for checking the position was performed before imaging. Thereafter, 50% DMSO or K-2 dissolved in 50% DMSO was administered by the parenteral route, and after 3 minutes from administration, the radio-labeled K-2 (about 4 MBq) was administered. […]
A summation image was constructed and offset was removed therefrom with a 0.5-mm Hanning filter so as to reconstruct a dynamic image. The reconstructed image was analyzed using PMOD image analysis software (PMOD technologies) by combining VOIs including a plurality of regions of the striatum, the hippocampus, the cerebellum, the brain stem, and the like with a region formed on the template MRI image. The calculation value used in quantitative determination was % SUV (% of standardized uptake value) and obtained by the following formula; % SUV=amount of radiation of each tissue surrounded by VOI (MBq)/administered amount of radiation (MBq)×weight (g) […]

AMPA receptor [4] = assay: In vivo PET imaging using rat, with blocking by non-radio-labeled K-2
Procedure: as §1
The PET imaging was performed using micro PET (Focus 220; Siemens Medical Solution). PET imaging experiment using a rat: After the rat was allowed to get to sleep by isoflurane (DS Pharma Animal Health Co., Ltd., Japan), anesthesia was maintained at an isoflurane concentration of 1.5% (air 2 L/min), and then the intravenous line was secured from the tail vein by a 24G Surflo indwelling needle (TERUMO CORPORATION, Japan). The rat was fixed to the PET imaging base, and then radiation imaging for checking the position was performed before imaging. Thereafter, 50% DMSO or K-2 dissolved in 50% DMSO was administered by the parenteral route, and after 3 minutes from administration, the radio-labeled K-2 (about 4 MBq) was administered. During the PET imaging, the body temperature was maintained to 37±0.5° C. using a feedback type heating plate (BWT-100A; Bio Research Center, Japan). After the imaging, the intravenous line was removed, the administration of isoflurane was stopped, and then the rat was removed from the PET imaging base and returned to the home cage. The rat was raised in the room in which imaging was performed during 1 week after the imaging, and then the rat was returned to the normal rat group rearing room.
A summation image was constructed and offset was removed therefrom with a 0.5-mm Hanning filter so as to reconstruct a dynamic image. The reconstructed image was analyzed using PMOD image analysis software (PMOD technologies) by combining VOIs including a plurality of regions of the striatum, the hippocampus, the cerebellum, the brain stem, and the like with a region formed on the template MRI image. The calculation value used in quantitative determination was % SUV (% of standardized uptake value) and obtained by the following formula; % SUV=amount of radiation of each tissue surrounded by VOI (MBq)/administered amount of radiation (MBq)×weight (g)

SMILES: NC(=O)COc1c(F)cc(SCCNS(=O)(=O)c2ccccc2)cc1F [PEPA, 2-[2,6-Difluoro-4-({2-[(phenylsulfonyl)amino]ethyl}thio)phenoxy]acetamide, reference compound]
- ratio of AMPA current to reference value (AMPA receptor [1]): 2.4±0.13
- accumulation of compound in hippocampal tissue [2]: highest

- brain uptake (AMPA receptor [4]; rat, PET, about 4 MBq): extremely high brain uptake
SMILES: [11CH3]N(CCSc1cc(F)c(OCC(N)=O)c(F)c1)S(=O)(=O)c1ccccc1 [Radio-labeled K-2, {4-[2-(Benzenesulfonyl-[^11C]Methyl-Amino)-Ethylsulfanil]-2,6-Difluoro-Phenoxy}-Acetamide]
- decrease in the PET image value at the shRNA side [3]: about 30%
- BPnd (estimated binding potential) (AMPA receptor [4]; Logan Plot method, blocking using the non-radio-labeled K-2, striatum and hippocampus): significantly lowered
- uptake of the brain stem (AMPA receptor [4]; blocking by non-radio-labeled K-2): not changed by blocking
- degree of loss of specific binding after blocking (AMPA receptor [4]; prior administration of 0.05 mg/kg of non-radio-labeled K-2, compared to 0.5 mg/kg): small
- specific accumulation of radio-labeled K-2 after blocking (AMPA receptor [4]; prior administration of 0.5 mg/kg of non-radio-labeled K-2, 3 minutes before): lost
